From patent US6663865B1, “Tumor necrosis factor antagonists and their use in endometriosis” (Applied Research Systems ARS Holding N.V., priority 1999, dated 2003)

Assays:
[1] = tested on: endometriotic-like foci; test: Experimental model of endometriosis in the rat (size of engraftments); type: in vivo; settings: for Mean ± SEM Post-treatment values (engraftment surface area): s.c., soluble TNF-RI 10 mg/kg, Antide 2 mg/kg; for Mean ± SEM Pre-treatment values (engraftment surface area): baseline at pre-treatment laparatomy
Experimental: Experimental model of endometriosis in the rat. To explore the effects of the recombinant soluble TNF-RI in endometriosis, a previously described experimental model (Jones, 1987) was used with minor modifications. Under Inoketam/Rompun anaesthesia, an autologous fragment of endometrial tissue (1 cm in length) was resected from the right uterine horn and placed in PBS at 37° C. The uterine segment was opened by a longitudinal incision, and a 5×5 mm section was transplanted, without removing the myometrium, onto the inner surface of the abdominal wall using non-absorbable silk suture at four comers.
Exploration of the study drugs effects in the experimental model of endometriosis. […] One further group of rats, not undergoing any surgical procedure, was kept as a normal control group. Three weeks after the induction of endometriosis, the animals underwent a second laparatomy (pre-treatment laparatomy) to evaluate the size and viability of the ectopic endometrial tissue. The surface area (length×width) was measured using a calliper and recorded. The animals showing viable engraftments were assigned to the designated treatment groups as reported in Table I, so that at the end of the experiment, six animals/group for the first sacrifice time-point and five animals/group for the second sacrifice time-point were obtained. The treatments were started after a 1-week recovery period. The control groups received saline alone; another group received three subcutaneous injections of 2 mg/kg Antide every 3 days with a regimen previously shown to suppress ovarian and hypothalamic activity (Sharpe et al., 1990). A further group received 10 mg/kg recombinant soluble TNF-RI, divided into two daily doses over a 1-week period.
(§1) At the designated sacrifice time-points (2 and 9 days after the last treatment i.e. 36 and 43 days after surgical engraftment), the animals were anaesthetised; blood samples were collected from abdominal aorta, sera were separated and stored at −20° C. until analyzed for estradiol-17β level determination. Spleens were excised for measurement of the Natural Killer (NK) activity. The surface area of endometriosis-like foci were measured at each sacrifice time-point in order to normalize data, the percent variation versus the pre-treatment laparatomy value was calculated by the formula: [formula]
where X0 is the size at time of pre-treatment laparatomy and X is the size at the time of sacrifice. The mean value of percent variation in each group was then computed.

[2] = Serum estradiol-17β determination by radioimmunoassay in rats with experimental endometriosis; type: in vivo, rat; settings: second observation time-point (9 days after last treatment)
Experimental: as §1
Estradiol-17β determination. Serum estradiol-17β concentrations were determined using a commercially available kit to quantify estradiol in serum with no extraction step (DPC, Los Angeles, Calif., USA). Briefly, ^125I-labeled estradiol competes with estradiol in the serum sample for antibody sites. After incubation, separation of bound from free was achieved by decanting. The tube was then counted in a gamma counter (LKB-Pharmacia Wallak), the counts being inversely related to the amount of estradiol present in the serum sample. The quantity of estradiol in the samples was determined by comparing the counts to a calibration curve. […] Samples from the same experimental session were analyzed in a single immunoassay.

[3] = tested on: endometriosis; settings: cited from earlier work

Row | Molecule | size reduction of the endometriotic-like foci compared to the original dimension ([1]; 2 days after last treatment (first sacrifice time-point)) | Mean ± SEM Post-treatment values (engraftment surface area) ([1]; 2 days after last treatment) | size reduction of the endometriotic-like foci compared to the original dimension ([1]; 9 days after last treatment (second sacrifice time-point)) | Mean ± SEM Post-treatment values (engraftment surface area) ([1]; 9 days after last treatment) | Mean ± SEM Pre-treatment values (engraftment surface area) ([1]; group observed 2 days after last treatment) | Mean ± SEM Pre-treatment values (engraftment surface area) ([1]; group observed 9 days after last treatment) | serum estradiol-17β concentration compared to untreated controls [2] | crude recurrence rates ([3]; after up to 4 years) | patients suffering from pain with improved symptoms ([3]; endometriosis patients) | patients abandoning therapy because of weight gain and androgenic side effects ([3]; human, in vivo)
1 | Antide | 94% | 0.08 ± 0.02 cm^2 | 88% | 0.19 ± 0.09 cm^2 | 1.43 ± 0.34 cm^2 | 1.41 ± 0.32 cm^2 | significant difference |  |  | 
2 | C#C[C@]1(O)CC[C@H]2[C@@H]3CCC4=Cc5oncc5C[C@]4(C)[C@H]3CC[C@@]21C [Danazol] |  |  |  |  |  |  |  | 40%-50% | 66-100% | up to 80%
